± gives the standard deviation of the averaged measurements.
Columns and labels:
Experiment in all cases: relative viability vs DMSO control (72 h) (fraction); higher = more viable cells
[1] = test system: RD
Summary of the method: (§1)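 Sarcoma cell lines in 384-well plates, seeded to reach 80–90% confluence, were given compound after 24 h and kept 72 h at 37 °C, 5% CO2, with 0.1% DMSO vehicle and a 5 µM positive control. Relative viability came from ATPLite as percent growth, averaged over up to triplicate wells. On the rescaled values, 1 equals full and 0 equals none.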

[2] = test system: SK-ES-1
Summary of the method: as §1

[3] = test system: HT1080
Summary of the method: as §1

[4] = test system: KHOS-240S
Summary of the method: as §1

[5] = test system: SK-LMS-1
Summary of the method: as §1

[6] = test system: VA-ES-BJ
Summary of the method: as §1

[7] = test system: MES-SA
Summary of the method: as §1

[8] = test system: G401
Summary of the method: as §1

[9] = test system: SW1353
Summary of the method: as §1

[10] = test system: RD-ES
Summary of the method: as §1

[11] = test system: SYO-1
Summary of the method: as §1

[12] = test system: SW982
Summary of the method: as §1

`COC(=O)[C@@]1(O)C[C@H]2O[C@]1(C)n1c3ccccc3c3c4c(c5c6ccccc6n2c5c31)C(=O)NC4` [K-252a] gave a relative viability ([1]; 0.00017 µM) of 1.07 ± 0.021, a relative viability ([1]; 0.00051 µM) of 1.08 ± 0.021 and a relative viability ([1]; 0.00152 µM) of 1.11 ± 0.031. For the same molecule, the relative viability ([1]; 0.00457 µM) was 1.12 ± 0.027, the relative viability ([1]; 0.01372 µM) was 1.13 ± 0.021 and the relative viability ([1]; 0.04115 µM) was 1.13 ± 0.017. It also gave a relative viability ([1]; 0.1235 µM) of 1.09 ± 0.018, a relative viability ([1]; 0.3704 µM) of 1 ± 0.015 and a relative viability ([1]; 1.111 µM) of 0.507 ± 0.011. It also gave a relative viability ([1]; 3.333 µM) of 0.278 ± 0.013, a relative viability ([1]; 10 µM) of 0.0929 ± 0.0062 and a relative viability ([2]; 0.00017 µM) of 1.06 ± 0.039. For the same molecule, the relative viability ([2]; 0.00051 µM) was 1.05 ± 0.037, the relative viability ([2]; 0.00152 µM) was 1.02 ± 0.061 and the relative viability ([2]; 0.00457 µM) was 1.02 ± 0.075. The relative viability ([2]; 0.01372 µM) was 0.778 ± 0.044, the relative viability ([2]; 0.04115 µM) was 0.508 ± 0.016 and the relative viability ([2]; 0.1235 µM) was 0.398 ± 0.0073. For the same molecule, the relative viability ([2]; 0.3704 µM) was 0.256 ± 0.017, the relative viability ([2]; 1.111 µM) was 0.126 ± 0.0089 and the relative viability ([2]; 3.333 µM) was 0.115 ± 0.0034. For the same molecule, the relative viability ([2]; 10 µM) was 0.114 ± 0.0063, the relative viability ([3]; 0.00017 µM) was 1.09 ± 0.02 and the relative viability ([3]; 0.00051 µM) was 1.09 ± 0.046. The relative viability ([3]; 0.00152 µM) was 1.09 ± 0.03, the relative viability ([3]; 0.00457 µM) was 1.09 ± 0.038 and the relative viability ([3]; 0.01372 µM) was 1.16 ± 0.038. The relative viability ([3]; 0.04115 µM) was 1.13 ± 0.038, the relative viability ([3]; 0.1235 µM) was 1.05 ± 0.029 and the relative viability ([3]; 0.3704 µM) was 1.13 ± 0.042. For the same molecule, the relative viability ([3]; 1.111 µM) was 0.683 ± 0.014, the relative viability ([3]; 3.333 µM) was 0.105 ± 0.038 and the relative viability ([3]; 10 µM) was 0.0141 ± 0.0015. The relative viability ([4]; 0.00017 µM) was 1.06 ± 0.053, the relative viability ([4]; 0.00051 µM) was 1.05 ± 0.027 and the relative viability ([4]; 0.00152 µM) was 1.08 ± 0.037. It also gave a relative viability ([4]; 0.00457 µM) of 1.06 ± 0.011, a relative viability ([4]; 0.01372 µM) of 1.05 ± 0.041 and a relative viability ([4]; 0.04115 µM) of 0.998 ± 0.011. It also gave a relative viability ([4]; 0.1235 µM) of 0.815 ± 0.049, a relative viability ([4]; 0.3704 µM) of 0.553 ± 0.01 and a relative viability ([4]; 1.111 µM) of 0.346 ± 0.011. The relative viability ([4]; 3.333 µM) was 0.258 ± 0.0071, the relative viability ([4]; 10 µM) was 0.0419 ± 0.0046 and the relative viability ([5]; 0.00017 µM) was 1.03 ± 0.013. The relative viability ([5]; 0.00051 µM) was 1.01 ± 0.019, the relative viability ([5]; 0.00152 µM) was 1.04 ± 0.026 and the relative viability ([5]; 0.00457 µM) was 1.044 ± 0.0061. For the same molecule, the relative viability ([5]; 0.01372 µM) was 0.9 ± 0.036, the relative viability ([5]; 0.04115 µM) was 0.719 ± 0.01 and the relative viability ([5]; 0.1235 µM) was 0.664 ± 0.032. For the same molecule, the relative viability ([5]; 0.3704 µM) was 0.619 ± 0.018, the relative viability ([5]; 1.111 µM) was 0.339 ± 0.014 and the relative viability ([5]; 3.333 µM) was 0.212 ± 0.0035. For the same molecule, the relative viability ([5]; 10 µM) was 0.0825 ± 0.0028, the relative viability ([6]; 0.00017 µM) was 1.09 ± 0.046 and the relative viability ([6]; 0.00051 µM) was 1.07 ± 0.035. It also gave a relative viability ([6]; 0.00152 µM) of 1.09 ± 0.052, a relative viability ([6]; 0.00457 µM) of 1.07 ± 0.05 and a relative viability ([6]; 0.01372 µM) of 1.05 ± 0.042. The relative viability ([6]; 0.04115 µM) was 0.922 ± 0.046, the relative viability ([6]; 0.1235 µM) was 0.773 ± 0.033 and the relative viability ([6]; 0.3704 µM) was 0.67 ± 0.08. For the same molecule, the relative viability ([6]; 1.111 µM) was 0.381 ± 0.019, the relative viability ([6]; 3.333 µM) was -0.0139 ± 0.0043 and the relative viability ([6]; 10 µM) was -0.0189 ± 0.0017. The relative viability ([7]; 0.00017 µM) was 0.97 ± 0.021, the relative viability ([7]; 0.00051 µM) was 0.953 ± 0.027 and the relative viability ([7]; 0.00152 µM) was 0.956 ± 0.018. For the same molecule, the relative viability ([7]; 0.00457 µM) was 0.916 ± 0.045, the relative viability ([7]; 0.01372 µM) was 0.827 ± 0.022 and the relative viability ([7]; 0.04115 µM) was 0.618 ± 0.025. For the same molecule, the relative viability ([7]; 0.1235 µM) was 0.596 ± 0.023, the relative viability ([7]; 0.3704 µM) was 0.407 ± 0.0059 and the relative viability ([7]; 1.111 µM) was 0.324 ± 0.013. For the same molecule, the relative viability ([7]; 3.333 µM) was 0.0952 ± 0.018, the relative viability ([7]; 10 µM) was 0.00197 ± 0.0005 and the relative viability ([8]; 0.00017 µM) was 1.05 ± 0.037. For the same molecule, the relative viability ([8]; 0.00051 µM) was 1.06 ± 0.018, the relative viability ([8]; 0.00152 µM) was 1.03 ± 0.037 and the relative viability ([8]; 0.00457 µM) was 1.031 ± 0.0078. It also gave a relative viability ([8]; 0.01372 µM) of 1.04 ± 0.044, a relative viability ([8]; 0.04115 µM) of 0.977 ± 0.041 and a relative viability ([8]; 0.1235 µM) of 1 ± 0.039. For the same molecule, the relative viability ([8]; 0.3704 µM) was 0.893 ± 0.03, the relative viability ([8]; 1.111 µM) was 0.0854 ± 0.008 and the relative viability ([8]; 3.333 µM) was 0.0149 ± 0.0018. For the same molecule, the relative viability ([8]; 10 µM) was 0.00607 ± 0.00015, the relative viability ([9]; 0.00017 µM) was 1.037 ± 0.0058 and the relative viability ([9]; 0.00051 µM) was 1.033 ± 0.0031. It also gave a relative viability ([9]; 0.00152 µM) of 1.03 ± 0.054, a relative viability ([9]; 0.00457 µM) of 1 ± 0.037 and a relative viability ([9]; 0.01372 µM) of 0.964 ± 0.015. It also gave a relative viability ([9]; 0.04115 µM) of 0.892 ± 0.033, a relative viability ([9]; 0.1235 µM) of 0.814 ± 0.013 and a relative viability ([9]; 0.3704 µM) of 0.772 ± 0.014. For the same molecule, the relative viability ([9]; 1.111 µM) was 0.528 ± 0.014, the relative viability ([9]; 3.333 µM) was 0.294 ± 0.0069 and the relative viability ([9]; 10 µM) was 0.0167 ± 0.00085. It also gave a relative viability ([10]; 0.00017 µM) of 0.991 ± 0.041, a relative viability ([10]; 0.00051 µM) of 1.02 ± 0.015 and a relative viability ([10]; 0.00152 µM) of 1.01 ± 0.017. The relative viability ([10]; 0.00457 µM) was 1.02 ± 0.013, the relative viability ([10]; 0.01372 µM) was 0.979 ± 0.029 and the relative viability ([10]; 0.04115 µM) was 0.797 ± 0.012. For the same molecule, the relative viability ([10]; 0.1235 µM) was 0.578 ± 0.024, the relative viability ([10]; 0.3704 µM) was 0.488 ± 0.023 and the relative viability ([10]; 1.111 µM) was 0.175 ± 0.019. For the same molecule, the relative viability ([10]; 3.333 µM) was 0.0819 ± 0.0047, the relative viability ([10]; 10 µM) was 0.0303 ± 0.0099 and the relative viability ([11]; 0.00017 µM) was 1.03 ± 0.036. The relative viability ([11]; 0.00051 µM) was 0.983 ± 0.044, the relative viability ([11]; 0.00152 µM) was 0.982 ± 0.051 and the relative viability ([11]; 0.00457 µM) was 0.9645 ± 0.009. It also gave a relative viability ([11]; 0.01372 µM) of 0.928 ± 0.027, a relative viability ([11]; 0.04115 µM) of 0.862 ± 0.028 and a relative viability ([11]; 0.1235 µM) of 0.66 ± 0.044. The relative viability ([11]; 0.3704 µM) was 0.302 ± 0.017, the relative viability ([11]; 1.111 µM) was 0.137 ± 0.033 and the relative viability ([11]; 3.333 µM) was 0.128 ± 0.026. The relative viability ([11]; 10 µM) was 0.13 ± 0.018, the relative viability ([12]; 0.00017 µM) was 1.05 ± 0.015 and the relative viability ([12]; 0.00051 µM) was 1.064 ± 0.007. The relative viability ([12]; 0.00152 µM) was 1.079 ± 0.01, the relative viability ([12]; 0.00457 µM) was 1.07 ± 0.022 and the relative viability ([12]; 0.01372 µM) was 1.02 ± 0.022. It also gave a relative viability ([12]; 0.04115 µM) of 0.733 ± 0.015, a relative viability ([12]; 0.1235 µM) of 0.559 ± 0.03 and a relative viability ([12]; 0.3704 µM) of 0.443 ± 0.0062. For the same molecule, the relative viability ([12]; 1.111 µM) was 0.2914 ± 0.0025, the relative viability ([12]; 3.333 µM) was 0.151 ± 0.018 and the relative viability ([12]; 10 µM) was 0.0215 ± 0.0027.
